Reference: patent US11739098B2 (BRISTOL-MYERS SQUIBB COMPANY, priority 2017, dated 2023)

Legend:
Format in all cases: cell-based
human TLR9 = molecular target: T1, human TLR9 (Homo sapiens, UniProt Q9NR96); test: TLR9 inhibition reporter assay (HEK-Blue cells, SEAP reporter, ODN2006 stimulation); conditions: HEK-Blue cells overexpressing human TLR9, SEAP reporter, ODN2006 5 nM
T1 construct: host or cells: HEK-Blue cells (HEK293-derived reporter line)
T1 sequence (Q9NR96 26-1032): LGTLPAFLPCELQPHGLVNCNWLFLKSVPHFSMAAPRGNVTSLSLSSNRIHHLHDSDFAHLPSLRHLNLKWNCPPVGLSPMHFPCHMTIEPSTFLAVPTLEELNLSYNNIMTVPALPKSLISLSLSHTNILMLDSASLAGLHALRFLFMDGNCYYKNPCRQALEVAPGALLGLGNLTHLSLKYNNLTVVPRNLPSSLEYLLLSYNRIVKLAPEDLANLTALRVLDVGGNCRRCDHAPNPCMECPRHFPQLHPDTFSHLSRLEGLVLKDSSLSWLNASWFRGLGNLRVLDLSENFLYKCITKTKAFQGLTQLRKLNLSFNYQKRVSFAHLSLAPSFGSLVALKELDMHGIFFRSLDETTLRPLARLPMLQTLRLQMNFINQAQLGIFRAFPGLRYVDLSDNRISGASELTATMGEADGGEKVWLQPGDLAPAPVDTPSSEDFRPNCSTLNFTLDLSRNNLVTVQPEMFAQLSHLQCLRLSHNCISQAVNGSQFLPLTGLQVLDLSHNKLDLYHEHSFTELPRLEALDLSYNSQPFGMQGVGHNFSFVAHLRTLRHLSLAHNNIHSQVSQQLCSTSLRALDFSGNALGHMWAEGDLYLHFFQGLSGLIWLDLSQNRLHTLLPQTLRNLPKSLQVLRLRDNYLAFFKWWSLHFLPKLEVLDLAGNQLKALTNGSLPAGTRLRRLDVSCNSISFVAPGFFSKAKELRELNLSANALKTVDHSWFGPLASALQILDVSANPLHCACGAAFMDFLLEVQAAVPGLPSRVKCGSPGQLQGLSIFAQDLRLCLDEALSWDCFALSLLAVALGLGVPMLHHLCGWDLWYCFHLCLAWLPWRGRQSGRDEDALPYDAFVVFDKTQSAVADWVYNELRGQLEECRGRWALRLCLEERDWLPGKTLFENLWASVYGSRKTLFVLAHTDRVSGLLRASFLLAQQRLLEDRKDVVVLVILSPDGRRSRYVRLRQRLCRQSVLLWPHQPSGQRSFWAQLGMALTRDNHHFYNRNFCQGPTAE
How it was run: (§1)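 Cells seeded per well (15000 TLR7, 20,000 TLR8, 25,000 TLR9); compound added over 0.05 nM–50 μM for 30 min at room temperature; agonist added (TLR7 gardiquimod 7.5 μM, TLR8 R848 15.9 μM, TLR9 ODN2006 5 nM); 22 h at 37 °C; SEAP measured; percent inhibition calculated.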

human TLR8 = molecular target: T2, human TLR8 (Homo sapiens, UniProt Q9NR97); test: TLR8 inhibition reporter assay (HEK-Blue cells, SEAP reporter, R848 stimulation); conditions: HEK-Blue cells overexpressing human TLR8, SEAP reporter, R848 15.9 μM
T2 construct: host or cells: HEK-Blue cells (HEK293-derived reporter line)
T2 sequence (Q9NR97 27-1041): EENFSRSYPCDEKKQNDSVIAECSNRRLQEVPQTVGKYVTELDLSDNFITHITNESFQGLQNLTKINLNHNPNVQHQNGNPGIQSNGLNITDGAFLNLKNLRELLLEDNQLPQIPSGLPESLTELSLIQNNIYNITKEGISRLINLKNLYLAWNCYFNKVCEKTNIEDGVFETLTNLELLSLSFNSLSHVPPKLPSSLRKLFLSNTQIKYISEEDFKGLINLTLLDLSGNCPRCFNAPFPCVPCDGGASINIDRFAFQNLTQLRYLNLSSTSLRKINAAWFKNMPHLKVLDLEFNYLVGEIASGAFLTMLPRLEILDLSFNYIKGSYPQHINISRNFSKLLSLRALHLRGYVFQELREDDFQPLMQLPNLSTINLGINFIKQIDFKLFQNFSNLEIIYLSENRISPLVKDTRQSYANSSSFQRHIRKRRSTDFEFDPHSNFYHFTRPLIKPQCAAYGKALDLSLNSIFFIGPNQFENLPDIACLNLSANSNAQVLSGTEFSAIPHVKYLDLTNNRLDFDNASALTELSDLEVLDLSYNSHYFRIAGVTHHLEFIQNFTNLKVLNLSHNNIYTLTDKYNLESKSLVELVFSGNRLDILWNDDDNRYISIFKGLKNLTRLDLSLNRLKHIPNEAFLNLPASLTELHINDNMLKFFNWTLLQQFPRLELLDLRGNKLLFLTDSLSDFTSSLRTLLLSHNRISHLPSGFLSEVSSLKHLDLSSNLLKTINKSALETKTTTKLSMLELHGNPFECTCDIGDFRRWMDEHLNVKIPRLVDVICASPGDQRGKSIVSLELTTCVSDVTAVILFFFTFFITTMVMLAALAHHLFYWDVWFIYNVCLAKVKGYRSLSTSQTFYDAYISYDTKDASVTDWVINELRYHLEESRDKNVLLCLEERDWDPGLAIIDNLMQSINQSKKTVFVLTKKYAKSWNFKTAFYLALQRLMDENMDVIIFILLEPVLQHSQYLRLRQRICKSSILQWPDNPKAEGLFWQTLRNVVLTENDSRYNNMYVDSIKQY
How it was run: as §1

human TLR7 = molecular target: T3, human TLR7 (Homo sapiens, UniProt Q9NYK1); test: TLR7 inhibition reporter assay (HEK-Blue cells, SEAP reporter, gardiquimod stimulation); conditions: HEK-Blue cells overexpressing human TLR7, SEAP reporter, gardiquimod 7.5 μM
T3 construct: host or cells: HEK-Blue cells (HEK293-derived reporter line)
T3 sequence (Q9NYK1 27-1049): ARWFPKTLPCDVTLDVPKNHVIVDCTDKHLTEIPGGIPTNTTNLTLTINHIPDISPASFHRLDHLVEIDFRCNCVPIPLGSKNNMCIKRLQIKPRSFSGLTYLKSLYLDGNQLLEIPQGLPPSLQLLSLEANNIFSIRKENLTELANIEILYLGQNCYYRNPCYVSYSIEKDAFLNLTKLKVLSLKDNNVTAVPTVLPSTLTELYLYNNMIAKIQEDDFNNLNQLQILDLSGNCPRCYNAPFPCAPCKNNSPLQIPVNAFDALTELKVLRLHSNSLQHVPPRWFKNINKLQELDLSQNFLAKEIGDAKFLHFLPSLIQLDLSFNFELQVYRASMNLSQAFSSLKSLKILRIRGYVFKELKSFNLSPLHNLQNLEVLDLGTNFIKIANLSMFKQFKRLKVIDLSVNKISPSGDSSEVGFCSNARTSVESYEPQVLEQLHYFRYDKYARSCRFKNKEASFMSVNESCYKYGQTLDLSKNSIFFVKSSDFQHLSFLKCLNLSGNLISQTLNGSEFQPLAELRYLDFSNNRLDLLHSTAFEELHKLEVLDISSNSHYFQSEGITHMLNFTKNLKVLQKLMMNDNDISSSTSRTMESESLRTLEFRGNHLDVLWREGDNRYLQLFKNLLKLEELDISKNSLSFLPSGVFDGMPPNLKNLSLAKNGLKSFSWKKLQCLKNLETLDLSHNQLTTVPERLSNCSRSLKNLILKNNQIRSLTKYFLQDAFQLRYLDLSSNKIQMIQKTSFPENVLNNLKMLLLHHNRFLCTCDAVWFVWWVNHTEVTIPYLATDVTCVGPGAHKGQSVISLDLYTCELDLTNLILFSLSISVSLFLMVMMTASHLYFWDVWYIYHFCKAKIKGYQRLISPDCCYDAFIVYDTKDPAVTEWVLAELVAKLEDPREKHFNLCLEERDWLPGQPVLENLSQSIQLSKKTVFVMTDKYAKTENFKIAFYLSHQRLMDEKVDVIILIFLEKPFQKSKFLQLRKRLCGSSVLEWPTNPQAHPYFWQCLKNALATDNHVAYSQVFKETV
How it was run: as §1

| IC50 (human TLR9) [nM] | IC50 (human TLR8) [nM] | IC50 (human TLR7) [nM] | Structure (SMILES) |
| --- | --- | --- | --- |
| 1000 to 50000 | < 100 | < 100 | CC(C)c1c(-c2cc3cn[nH]c3cn2)[nH]c2ccc(C3CCNCC3)cc12 [Example 179, 5-(3-isopropyl-5-(piperidin-4-yl)-1H-indol-2-yl)-1H-pyrazolo[3,4-c]pyridine] |
| 100 to 1000 | 100 to 1000 | < 100 | CNCC(=O)N1CCC(c2ccc3[nH]c(-c4cc(F)c5nccn5c4)c(C(C)C)c3c2)CC1 [Example 547, 1-(4-(2-(8-fluoroimidazo[1,2-a]pyridin-6-yl)-3-isopropyl-1H-indol-5-yl)piperidin-1-yl)-2-(methylamino)ethan-1-one] |
| 1000 to 50000 | > 3130 | > 3130 | Cc1cc2cc(-c3[nH]c4ccc(C5CCN(C(=O)CN(C)C)CC5)cc4c3C(C)C)cc(CC(C)C)n2n1 [Example 524, 2-(dimethylamino)-1-(4-(2-(7-isobutyl-2-methylpyrazolo[1,5-a]pyridin-5-yl)-3-isopropyl-1H-indol-5-yl)piperidin-1-yl)ethan-1-one] |
| 1000 to 50000 | < 100 | < 100 | CCOc1cc(-c2[nH]c3ccc(C4CCN(CC(=O)NC)CC4)cc3c2C(C)C)cc2nc(C)nn12 [Example 349, 2-(4-(2-(5-ethoxy-2-methyl-[1,2,4]triazolo[1,5-a]pyridin-7-yl)-3-isopropyl-1H-indol-5-yl)piperidin-1-yl)-N-methylacetamide] |
| 1000 to 50000 | < 100 | < 100 | CC(C)c1c(-c2cn(C)c3ncccc23)[nH]c2ccc(C3CCN(CC#N)CC3)cc12 [Example 958, 2-(4-(3-isopropyl-2-(1-methyl-1H-pyrrolo[2,3-b]pyridin-3-yl)-1H-indol-5-yl)piperidin-1-yl)acetonitrile] |
| 1000 to 50000 | < 100 | < 100 | Cc1cc(-c2[nH]c3ccc(C4CCN(C(=O)CCN5CCC6CC65)CC4)cc3c2C(C)C)cn2nnnc12 (stereo not drawn) [Example 632, 3-(2-azabicyclo[3.1.0]hexan-2-yl)-1-(4-(3-isopropyl-2-(8-methyltetrazolo[1,5-a]pyridin-6-yl)-1H-indol-5-yl)piperidin-1-yl)propan-1-one] |
| 1000 to 50000 | 1000 to 50000 | > 50000 | CCc1c(-c2cnc3cc(C)cnn23)[nH]c2ccc(C3CCNCC3)cc12 [Example 108, 3-(3-ethyl-5-(piperidin-4-yl)-1H-indol-2-yl)-7-methylimidazo[1,2-b]pyridazine] |
| 100 to 1000 | 100 to 1000 | 100 to 1000 | Cc1cc(-c2c[nH]c3nccc(-c4[nH]c5ccc(C6CCNCC6)cc5c4C)c23)n(C)n1 [Example 225, 3-(1,3-dimethyl-1H-pyrazol-5-yl)-4-(3-methyl-5-(piperidin-4-yl)-1H-indol-2-yl)-1H-pyrrolo[2,3-b]pyridine] |
| 1000 to 50000 | < 100 | < 100 | CC(C)c1c(-c2ccn3ncnc3c2)[nH]c2ccc(C3CCNCC3)cc12 [Example 197, 7-(3-isopropyl-5-(piperidin-4-yl)-1H-indol-2-yl)-[1,2,4]triazolo[1,5-a]pyridine] |
| 100 to 1000 | < 100 | < 100 | CC(C)c1c(-c2cnc3ncccn23)[nH]c2ccc(C3CCNCC3)cc12 [Example 64, 3-(3-isopropyl-5-(piperidin-4-yl)-1H-indol-2-yl)imidazo[1,2-a]pyrimidine] |
| < 100 | 1000 to 50000 | 1000 to 50000 | Cc1c(-c2ncc3[nH]ccc3n2)[nH]c2ccc(C3CCN(C4CCN(C(C)C)CC4)CC3)cc12 [Example 808, 2-(5-(1′-isopropyl-[1,4′-bipiperidin]-4-yl)-3-methyl-1H-indol-2-yl)-5H-pyrrolo[3,2-d]pyrimidine] |
| > 50000 | 1000 to 50000 | < 100 | CC(C)c1c(-c2cc(F)c3nccn3c2)[nH]c2ccc(C3CCN(C(=O)C[C@H](C)O)CC3)cc12 [Example 604, (S)-1-(4-(2-(8-fluoroimidazo[1,2-a]pyridin-6-yl)-3-isopropyl-1H-indol-5-yl)piperidin-1-yl)-3-hydroxybutan-1-one] |
| 100 to 1000 | > 3130 | 1000 to 50000 | CC(C)c1c(-c2cnc3ccnn3c2)[nH]c2ccc(C3CCN(C(=O)CN(C)C)CC3)cc12 [Example 502, 2-(dimethylamino)-1-(4-(3-isopropyl-2-(pyrazolo[1,5-a]pyrimidin-6-yl)-1H-indol-5-yl)piperidin-1-yl)ethan-1-one] |
| 1000 to 50000 | < 100 | < 100 | Cc1cc(-c2[nH]c3ccc(C4CCN(C(=O)CN(C)C(C)(C)C)CC4)cc3c2C(C)C)cn2nnnc12 [Example 481, 2-(tert-butyl(methyl)amino)-1-(4-(3-isopropyl-2-(8-methyltetrazolo[1,5-a]pyridin-6-yl)-1H-indol-5-yl)piperidin-1-yl)ethan-1-one] |
